Among the data in patent publication US12384779B2, “Bicyclic compounds” (Aligos Therapeutics, Inc., priority 2022, dated 2025) are EC50 and CC50 values, retold here.

One series concerns HBV. The series is described as follows: HBV-DNA antiviral assay using HepG2.117 cells (intracellular HBV DNA by qPCR). The format is cell-based, genotype D HBV. The note with it: Hepatitis B virus, 72 h, HBV DNA inhibition, 3 days incubation. As for the experimental part:
(§1) The following assay procedure describes the HBV antiviral assay, using HepG2.117 cells, which carry a stably integrated genotype D HBV genome under the control of a Tet-off promoter, and intracellular HBV DNA quantification as endpoint. Cell viability is assessed in parallel by measuring the intracellular ATP content using CellTiter-Glo 2.0 (Promega).
(§2) On day 0, HepG2.117 cells (which are maintained in routine cell culture with doxycycline present in the medium at a final concentration of 1 μg/mL) are seeded in 96-well plates (white with clear bottom) at a density of 2.0×10^4 cells/well (0.1 mL/well) in medium without doxycycline to induce pgRNA transcription and subsequent formation of HBV particles. The cells are incubated at 37° C. and 5% CO2.
(§3) On day 1, medium is removed from each well, the test articles are diluted in culture medium without doxcycyline and 100 μL was added to cell culture wells (9 concentrations, 4-fold dilution). For each plate, 6 untreated (merely DMSO) wells are included. The final concentration of DMSO in the culture medium is 2%. Each plate is prepared in duplicate (one for HBV DNA extraction, one for CellTiter-Glo 2.0 measurement). The cells are incubated at 37° C. and 5% CO2 for 3 days.
(§4) On day 4, cell viability is assessed using CellTiter-Glo 2.0 and cell lysates are prepared for HBV DNA extraction and subsequent quantification by qPCR.
Medium is removed from each well and 100 μL of 0.33% NP-40 in H2O was added to each well. Plates are sealed, incubated at 4° C. for 5 mins, vortexed extensively and centrifuged briefly. Next, 35 μL of lysate is added to 65 μL QuickExtract DNA Extraction Solution (Epicentre) in a PCR plate for each well. PCR plate is incubated at 65° C. for 6 mins, 98° C. for 2 mins and finally cooled to 4° C. HBV DNA is then quantified by qPCR with HBV-specific primers and probes as specified in Table 2 using the Bio-Rad SSOAdvanced Universal Probes Supermix on a CFX96 machine (Bio-Rad). The PCR cycle program consisted of 95° C. for 3 mins, followed by 40 cycles at 95° C. for 10 sec and 60° C. for 30 sec.
A DNA standard is prepared by dilution of an IDT gBlock corresponding to the amplicon with concentrations ranging from 10^2 to 10^8 copies/input (i.e., per 4 μL) and used to generate a standard curve by plotting Cq values vs. HBV DNA standard concentration. The quantity of HBV DNA in each sample is determined by interpolating from the standard curve.
(§5) Cell viability is calculated as follows: % Cell viability=(luminescence value of test sample)/(average luminescence value of 2% DMSO control)×100%. HBV DNA inhibition was calculated as follows: 100−(HBV DNA copy number of test sample)/(average HBV DNA copy number of 2% DMSO control)×100%. No normalization to entecavir is required due to the excellent dynamic window of this assay. The CC50, EC50 and EC90 values were determined by dose-response curves fitted using non-linear regression.

Series [1] in a line: Cell viability by CellTiter-Glo 2.0 (intracellular ATP) in HepG2.117 cells. To be noted: human, CellTiter-Glo 2.0, 3 days incubation. The class given is cell-based. Here is the method: as §1, §2, §3, §4
Using the other plates, the cell viability is quantified by CellTiter-Glo 2.0 according to the manufacturer's manual. In brief, 100 μL of reagent solution is added to the culture plates and shaken for 2′. The plates are incubated at rt for 10 min and luminescence signal is subsequently measured on a VarioSkan Lux (ThermoFisher) plate reader.
as §5

In the series with HBV, `CNC(=O)c1ccc(-n2c(-n3nc(C#N)cc3C)nc3c(c2=O)C[C@@H](C)N(C(=O)c2ccc(Br)c(C(F)(F)F)c2)C3)cc1` [Compound 1, (R)-4-(7-(4-bromo-3-(trifluoromethyl)benzoyl)-2-(3-cyano-5-methyl-1H-pyrazol-1-yl)-6-methyl-4-oxo-5,6,7,8-tetrahydropyrido[3,4-d]pyrimidin-3(4H)-yl)-N-methylbenzamide] had an EC50 not above 0.05 µM. Also, the CC50 at 3 days in series [1] is more than 50 µM.

The compound `CNC(=O)c1ccc(-n2c(-n3nc(C)cc3C#N)nc3c(c2=O)C[C@@H](C)N(C(=O)c2ccc(Br)c(C(F)(F)F)c2)C3)cc1` [Compound 2, (R)-4-(7-(4-bromo-3-(trifluoromethyl)benzoyl)-2-(5-cyano-3-methyl-1H-pyrazol-1-yl)-6-methyl-4-oxo-5,6,7,8-tetrahydropyrido[3,4-d]pyrimidin-3(4H)-yl)-N-methylbenzamide] yielded an EC50 with HBV not above 0.05 µM. Further, the midpoint of cytotoxicity in series [1], the CC50 at 3 days, lay at 29.2 µM.

For `CNC(=O)c1ccc(-n2c(-n3nc(C4CC4)cc3C)nc3c(c2=O)C[C@@H](C)N(C(=O)c2ccc(Br)c(C(F)(F)F)c2)C3)cc1` [Compound 3, (R)-4-(7-(4-bromo-3-(trifluoromethyl)benzoyl)-2-(3-cyclopropyl-5-methyl-1H-pyrazol-1-yl)-6-methyl-4-oxo-5,6,7,8-tetrahydropyrido[3,4-d]pyrimidin-3(4H)-yl)-N-methylbenzamide], the EC50 in the series with HBV was not above 0.05 µM. For the same compound, the cytotoxic concentration (CC50) at 3 days in series [1] was more than 50 µM.

In turn, `CCc1cc(CC)n(-c2nc3c(c(=O)n2-c2ccc(C(=O)NC)cc2)C[C@@H](C)N(C(=O)c2ccc(Br)c(C(F)(F)F)c2)C3)n1` [Compound 4] had an EC50 in the series on HBV not above 0.05 µM. Also, the 50% cytotoxic concentration (CC50) at 3 days in series [1] was more than 50 µM.

With `CNC(=O)c1ccc(-n2c(-n3nc(C(F)(F)F)cc3C)nc3c(c2=O)C[C@@H](C)N(C(=O)c2ccc(Br)c(C(F)(F)F)c2)C3)cc1` [Compound 5], in the series with HBV, the EC50 is not above 0.05 µM. The compound further yielded a CC50 at 3 days in series [1] of more than 0.5 µM.

`CNC(=O)c1ccc(-n2c(-n3nc(C(C)(C)C)cc3C)nc3c(c2=O)C[C@@H](C)N(C(=O)c2ccc(Br)c(C(F)(F)F)c2)C3)cc1` [Compound 6] had an EC50 with HBV not above 0.05 µM. The same compound yielded a CC50 at 3 days in series [1] of 41.8 µM.

Consider `CNC(=O)c1ccc(-n2c(-n3nc(C(C)C)cc3C)nc3c(c2=O)C[C@@H](C)N(C(=O)c2ccc(Br)c(C(F)(F)F)c2)C3)cc1` [Compound 7], for which the EC50 in the series on HBV is not above 0.05 µM. Besides, the CC50 at 3 days in series [1] was more than 50 µM.

On to `CNC(=O)c1ccc(-n2c(-n3nc(C)cc3C(C)C)nc3c(c2=O)C[C@@H](C)N(C(=O)c2ccc(Br)c(C(F)(F)F)c2)C3)cc1` [Compound 8], for which, in the series with HBV, the EC50 was not above 0.05 µM. The CC50 at 3 days in series [1] is more than 50 µM.

With `CNC(=O)c1ccc(-n2c(-n3nc(C)c(C)c3C)nc3c(c2=O)C[C@@H](C)N(C(=O)c2ccc(Br)c(C(F)(F)F)c2)C3)cc1` [Compound 9], the half-maximal effective concentration (EC50) in the series with HBV is 0.05 to 0.5 µM. In series [1], this compound returned a CC50 at 3 days of more than 5 µM.

In turn, `CNC(=O)c1ccc(-n2c(-n3cc4c(n3)CCCC4)nc3c(c2=O)C[C@@H](C)N(C(=O)c2ccc(Br)c(C(F)(F)F)c2)C3)cc1` [Compound 10] gave a 50% effective concentration (EC50) in the series on HBV not above 0.05 µM. In series [1], this compound registered a CC50 at 3 days of more than 50 µM.

Take `CNC(=O)c1ccc(-n2c(-n3nc(C(=O)N(C)C)cc3C)nc3c(c2=O)C[C@@H](C)N(C(=O)c2ccc(Br)c(C(F)(F)F)c2)C3)cc1` [Compound 11]: the EC50 in the series with HBV lay in the range of 0.05 to 0.5 µM. In addition, the CC50 at 3 days in series [1] is more than 50 µM.

Compound `[2H]c1c(C)nn(-c2nc3c(c(=O)n2-c2ccc(C(=O)NC)cc2)C[C@@H](C)N(C(=O)c2ccc(Br)c(C(F)(F)F)c2)C3)c1C` [Compound 12] yielded a half-maximal effective concentration (EC50) in the series with HBV not above 0.05 µM. Moreover, the CC50 at 3 days in series [1] is more than 50 µM.
